Tests used:
HLA A*0101 [1] = molecular target: T1, HLA A*0101 (Homo sapiens, UniProt P04439, A114D/A174V/A182V/D101N/D185E/E176A/E190D/L180R/Q94H/R68K/S129P/T187R/V100A/V91M/W191G); experiment: ITOPIA peptide binding assay; conditions: 1.11×10^−4M of peptide
T1 construct: purchased
Procedure: (§1) Peptide binding, off-rate and affinity were measured according to the protocols described in the ITOPIA Epitope Discovery System Customer Guide. To conduct the experiments, ninety-six (96) micro-titer plates coated with MHC molecules representing the HLA alleles listed in Table 9 were used to identify candidate peptides. Determinations were performed in duplicate using an ELISA plate reader. The peptide binding assay used measures the ability of individual peptides to bind to the HLA molecules under standardized optimal binding conditions. The assay was performed for all the test peptides across the selected HLA alleles. The test peptides identified as “binders” were characterized further in terms of affinity and dissociation experiments. The off-rate assay used evaluates the dissociation of previously bound peptide at defined time points (expressed as the t1/2 value). The affinity assay used measures the relative binding affinities for the MHC molecules determined by incubating candidate peptides identified in the initial peptide binding assay at increasing concentrations (expressed as quantity of peptide needed to achieve 50% binding or ED50 value).
(§2) The binding of the test peptides (Table 8) to the HLA molecules (Table 9) was performed at a concentration of 1.11×10^−4M of peptide under optimal, standardized test conditions. A control peptide was run in parallel on the same plate and at the same concentration as the test peptides. […] The level of binding is expressed as a percent of positive control peptide binding for each allele.

HLA A*0201 [2] = molecular target: T2, HLA A*0201 (Homo sapiens, UniProt P04439, D140Y/D185E/D98H/E176V/E277Q/G131W/G231S/I119V/I121R/I166T/I218V/L300P/L318F/N151K/N90K/P208A/P217A/Q86G/Q94H/R138H/R169H/T345S); experiment: ITOPIA peptide binding assay; conditions: 1.11×10^−4M of peptide
Procedure: as §1, §2

HLA A*0301 [3] = molecular target: T3, HLA A*0301 (Homo sapiens, UniProt P04439); experiment: ITOPIA peptide binding assay; conditions: 1.11×10^−4M of peptide
T3 construct: purchased
Procedure: as §1, §2

HLA A*1101 [4] = molecular target: T4, HLA A*1101 (Homo sapiens, UniProt P04439, A114D/D185E/E176A/F33Y/L180Q/S129P/T187R); experiment: ITOPIA peptide binding assay; conditions: 1.11×10^−4M of peptide
T4 construct: purchased
Procedure: as §1, §2

HLA A*2402 [5] = molecular target: T5, HLA A*2402 (Homo sapiens, UniProt P04439, D101N/D140Y/D185E/E176V/E190D/F33S/G103R/G107R/I119L/I121M/I306V/K335N/L105A/L180Q/L300P/N151K/N90K/Q86E/Q94H/R106L/R138H/R89G/T104I/T345S/V100E/W191G/Y123F); experiment: ITOPIA peptide binding assay; conditions: 1.11×10^−4M of peptide
Procedure: as §1, §2

HLA B*0702 [6] = molecular target: T6, HLA B*0702 (Homo sapiens, UniProt P01889); experiment: ITOPIA peptide binding assay; conditions: 1.11×10^−4M of peptide
T6 construct: purchased
Procedure: as §1, §2

HLA B*0801 [7] = molecular target: T7, HLA B*0801 (Homo sapiens, UniProt P01889, A93T/A95T/D138N/E176V/E187T/K202T/Q94N/R180D/S35A/V36M/Y33D/Y91F); experiment: ITOPIA peptide binding assay; conditions: 1.11×10^−4M of peptide
T7 construct: purchased
Procedure: as §1, §2

HLA B*1501 [8] = molecular target: T8, HLA B*1501 (Homo sapiens, UniProt P01889, A329T/A93T/A95T/C349S/D201E/D98Y/E187L/E204Q/E69M/E70A/K202T/N87E/Q94N/R155S/R180W/S121R/S35A/S48A/V306I/V36M/Y140S/Y91S); experiment: ITOPIA peptide binding assay; conditions: 1.11×10^−4M of peptide
T8 construct: purchased
Procedure: as §1, §2

HLA A*0201 [9] = molecular target: T2, HLA A*0201; experiment: ITOPIA off-rate assay; format: binding; conditions: 37° C., one-phase exponential decay
Procedure: as §1
(§3) The peptides initially identified as binders were evaluated for stability based on their ability to remain bound to MHC molecules at 37° C. at time points 0, 0.5, 1, 1.5, 2, 4, 6 and 8 hours. […] The values obtained for each time point (in duplicate) are expressed (Table 11) as a percentage of the positive control. To calculate the t1/2 and goodness-of-fit, as measured by r^2, for each peptide, a one-phase exponential decay curve, with a plateau given equal to 0, was generated using […] PRISM software.

HLA A*2402 [10] = molecular target: T5, HLA A*2402; experiment: ITOPIA off-rate assay; format: binding; conditions: 37° C., one-phase exponential decay
Procedure: as §1, §3

HLA A*0101 [11] = molecular target: T1, HLA A*0101; experiment: Multi-parametric analysis iScore; format: binding; design: scale not given here; conditions: index integrating t1/2 and ED50
Procedure: (§4) Multi-parametric analysis was performed to integrate the half-life (t½) and ED50 parameters in an index (iScore). The iScore (Table 13) reflects the capability of a peptide to reconstitute with MHC molecules in a stable complex, defining its overall level of binding.

HLA A*0201 [12] = molecular target: T2, HLA A*0201; experiment: Multi-parametric analysis iScore; format: binding; design: scale not given here; conditions: index integrating t1/2 and ED50
Procedure: as §4

HLA A*0301 [13] = molecular target: T3, HLA A*0301; experiment: Multi-parametric analysis iScore; format: binding; design: scale not given here; conditions: index integrating t1/2 and ED50
Procedure: as §4

HLA A*1101 [14] = molecular target: T4, HLA A*1101; experiment: Multi-parametric analysis iScore; format: binding; design: scale not given here; conditions: index integrating t1/2 and ED50
Procedure: as §4

HLA A*2402 [15] = molecular target: T5, HLA A*2402; experiment: Multi-parametric analysis iScore; format: binding; design: scale not given here; conditions: index integrating t1/2 and ED50
Procedure: as §4

HLA B*0702 [16] = molecular target: T6, HLA B*0702; experiment: Multi-parametric analysis iScore; format: binding; design: scale not given here; conditions: index integrating t1/2 and ED50
Procedure: as §4

HLA B*0801 [17] = molecular target: T7, HLA B*0801; experiment: Multi-parametric analysis iScore; format: binding; design: scale not given here; conditions: index integrating t1/2 and ED50
Procedure: as §4

HLA B*1501 [18] = molecular target: T8, HLA B*1501; experiment: Multi-parametric analysis iScore; format: binding; design: scale not given here; conditions: index integrating t1/2 and ED50
Procedure: as §4

HLA B*1501 [19] = molecular target: T8, HLA B*1501; experiment: ITOPIA off-rate assay; format: binding; conditions: 37° C., one-phase exponential decay
Procedure: as §1, §3

| Sequence | level of binding, percent of positive control peptide binding (HLA A*0101 [1]) | level of binding, percent of positive control peptide binding (HLA A*0201 [2]) | level of binding, percent of positive control peptide binding (HLA A*0301 [3]) | level of binding, percent of positive control peptide binding (HLA A*1101 [4]) | level of binding, percent of positive control peptide binding (HLA A*2402 [5]) | level of binding, percent of positive control peptide binding (HLA B*0702 [6]) | level of binding, percent of positive control peptide binding (HLA B*0801 [7]) | level of binding, percent of positive control peptide binding (HLA B*1501 [8]) | A*0201 t1/2 (HLA A*0201 [9]) [h] | A*2402 t1/2 (HLA A*2402 [10]) [h] | iScore (HLA A*0101 [11]) | iScore (HLA A*0201 [12]) | iScore (HLA A*0301 [13]) | iScore (HLA A*1101 [14]) | iScore (HLA A*2402 [15]) | iScore (HLA B*0702 [16]) | iScore (HLA B*0801 [17]) | iScore (HLA B*1501 [18]) | B*1501 t1/2 (HLA B*1501 [19]) [h] |
| --- | --- | --- | --- | --- | --- | --- | --- | --- | --- | --- | --- | --- | --- | --- | --- | --- | --- | --- | --- |
| ALFYKLDVI [compound 158] | 1% of positive control | 62% of positive control | 14% of positive control | 1% of positive control | 99% of positive control | 3% of positive control | 5% of positive control | 3% of positive control | 5.5 | 1.1 | 0 | 0.460 | 0 | 0 | 0.339 | 0 | 0 | 0 | – |
| CSSNITGLI [compound 154] | 5% of positive control | 44% of positive control | 0% of positive control | 1% of positive control | 29% of positive control | 5% of positive control | 6% of positive control | 40% of positive control | 0.4 | 1.5 | 0 | 0.114 | 0 | 0 | 0.038 | 0 | 0 | 0.112 | 3.8 |
| CSSNITGLL [compound 69] | 4% of positive control | 37% of positive control | 0% of positive control | 1% of positive control | 26% of positive control | 5% of positive control | 4% of positive control | 30% of positive control | 0.3 | 1.1 | 0 | 0.081 | 0 | 0 | 0.016 | 0 | 0 | 0.067 | 3.1 |
| YNEWTLELL [compound 22] | 0% of positive control | 7% of positive control | 0% of positive control | 1% of positive control | 35% of positive control | 2% of positive control | 3% of positive control | 0% of positive control | – | 1.5 | 0 | 0 | 0 | 0 | 0.071 | 0 | 0 | 0 | – |

From patent US20060160070A1, “Association-based epitome design” (Microsoft Corporation, priority 2004, published 2006)
